{"source": "PubChem BioAssay (NCI)", "assay_in_all_cases": "NCI-60 cell line screen, 48 h", "key": {"SR leukemia": {"test_system": "SR leukemia"}, "HCT-116 colon": {"test_system": "HCT-116 colon"}, "A498 renal": {"test_system": "A498 renal"}, "COLO 205 colon": {"test_system": "COLO 205 colon"}, "TK-10 renal": {"test_system": "TK-10 renal"}, "SK-MEL-2 melanoma": {"test_system": "SK-MEL-2 melanoma"}, "OVCAR-3 ovarian": {"test_system": "OVCAR-3 ovarian"}, "SF-539 CNS": {"test_system": "SF-539 CNS"}, "BT-549 breast": {"test_system": "BT-549 breast"}, "NCI-H226 lung": {"test_system": "NCI-H226 lung"}, "SF-295 CNS": {"test_system": "SF-295 CNS"}, "SK-MEL-5 melanoma": {"test_system": "SK-MEL-5 melanoma"}, "IGROV1 ovarian": {"test_system": "IGROV1 ovarian"}, "OVCAR-5 ovarian": {"test_system": "OVCAR-5 ovarian"}, "EKVX NSCLC": {"test_system": "EKVX NSCLC"}, "OVCAR-4 ovarian": {"test_system": "OVCAR-4 ovarian"}, "SW-620 colon": {"test_system": "SW-620 colon"}, "RPMI-8226 leukemia": {"test_system": "RPMI-8226 leukemia"}, "SF-268 CNS": {"test_system": "SF-268 CNS"}, "MCF7 breast": {"test_system": "MCF7 breast"}, "NCI-H522 lung": {"test_system": "NCI-H522 lung"}, "MDA-MB-435": {"test_system": "MDA-MB-435"}, "DU-145 prostate": {"test_system": "DU-145 prostate"}, "A549 NSCLC": {"test_system": "A549 NSCLC"}, "UO-31 renal": {"test_system": "UO-31 renal"}, "NCI-H460 lung": {"test_system": "NCI-H460 lung"}, "ACHN renal": {"test_system": "ACHN renal"}, "HOP-92 NSCLC": {"test_system": "HOP-92 NSCLC"}, "SNB-75 CNS": {"test_system": "SNB-75 CNS"}}, "note": "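The compound was tested at five concentrations on cells cultured in 96-well plates, with a 48-hour exposure period. The concentration for 50% growth inhibition is given as GI50. Definition used: TGI = concentration required for complete inhibition of growth.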"}
{"molecule": "N#Cc1c(-c2ccc(Cl)cc2)nc(SCc2ccc(F)cc2)nc1N1CCNCC1", "values": [{"measurement": "GI50", "setting": "SR leukemia", "value": 1.99, "unit": "µM"}, {"measurement": "TGI", "setting": "SR leukemia", "value": 4.79, "unit": "µM"}, {"measurement": "GI50", "setting": "HCT-116 colon", "value": 1.72, "unit": "µM"}, {"measurement": "TGI", "setting": "HCT-116 colon", "value": 3.09, "unit": "µM"}, {"measurement": "GI50", "setting": "A498 renal", "value": 14.3, "unit": "µM"}, {"measurement": "TGI", "setting": "A498 renal", "value": 30.1, "unit": "µM"}, {"measurement": "GI50", "setting": "COLO 205 colon", "value": 1.75, "unit": "µM"}, {"measurement": "TGI", "setting": "COLO 205 colon", "value": 3.2, "unit": "µM"}, {"measurement": "GI50", "setting": "TK-10 renal", "value": 10.6, "unit": "µM"}, {"measurement": "TGI", "setting": "TK-10 renal", "value": 23.9, "unit": "µM"}, {"measurement": "GI50", "setting": "SK-MEL-2 melanoma", "value": 14.7, "unit": "µM"}, {"measurement": "TGI", "setting": "SK-MEL-2 melanoma", "value": 29.3, "unit": "µM"}, {"measurement": "GI50", "setting": "OVCAR-3 ovarian", "value": 1.89, "unit": "µM"}, {"measurement": "TGI", "setting": "OVCAR-3 ovarian", "value": 3.71, "unit": "µM"}, {"measurement": "GI50", "setting": "SF-539 CNS", "value": 1.71, "unit": "µM"}, {"measurement": "TGI", "setting": "SF-539 CNS", "value": 3.16, "unit": "µM"}, {"measurement": "GI50", "setting": "BT-549 breast", "value": 7.59, "unit": "µM"}, {"measurement": "TGI", "setting": "BT-549 breast", "value": 22.1, "unit": "µM"}, {"measurement": "GI50", "setting": "NCI-H226 lung", "value": 5.97, "unit": "µM"}, {"measurement": "TGI", "setting": "NCI-H226 lung", "value": 24.9, "unit": "µM"}, {"measurement": "GI50", "setting": "SF-295 CNS", "value": 1.88, "unit": "µM"}, {"measurement": "TGI", "setting": "SF-295 CNS", "value": 3.47, "unit": "µM"}, {"measurement": "GI50", "setting": "SK-MEL-5 melanoma", "value": 14.3, "unit": "µM"}, {"measurement": "TGI", "setting": "SK-MEL-5 melanoma", "value": 29.5, "unit": "µM"}, {"measurement": "GI50", "setting": "IGROV1 ovarian", "value": 1.8, "unit": "µM"}, {"measurement": "TGI", "setting": "IGROV1 ovarian", "value": 3.57, "unit": "µM"}, {"measurement": "GI50", "setting": "OVCAR-5 ovarian", "value": 2.2, "unit": "µM"}, {"measurement": "TGI", "setting": "OVCAR-5 ovarian", "value": 6.25, "unit": "µM"}, {"measurement": "GI50", "setting": "EKVX NSCLC", "value": 4.98, "unit": "µM"}, {"measurement": "TGI", "setting": "EKVX NSCLC", "value": 19.7, "unit": "µM"}, {"measurement": "GI50", "setting": "OVCAR-4 ovarian", "value": 1.78, "unit": "µM"}, {"measurement": "TGI", "setting": "OVCAR-4 ovarian", "value": 4.06, "unit": "µM"}, {"measurement": "GI50", "setting": "SW-620 colon", "value": 1.98, "unit": "µM"}, {"measurement": "TGI", "setting": "SW-620 colon", "value": 4.04, "unit": "µM"}, {"measurement": "GI50", "setting": "RPMI-8226 leukemia", "value": 2.19, "unit": "µM"}, {"measurement": "TGI", "setting": "RPMI-8226 leukemia", "value": 5.23, "unit": "µM"}, {"measurement": "GI50", "setting": "SF-268 CNS", "value": 2.27, "unit": "µM"}, {"measurement": "TGI", "setting": "SF-268 CNS", "value": 5.82, "unit": "µM"}, {"measurement": "GI50", "setting": "MCF7 breast", "value": 1.65, "unit": "µM"}, {"measurement": "TGI", "setting": "MCF7 breast", "value": 3.29, "unit": "µM"}, {"measurement": "GI50", "setting": "NCI-H522 lung", "value": 1.61, "unit": "µM"}, {"measurement": "TGI", "setting": "NCI-H522 lung", "value": 3.08, "unit": "µM"}, {"measurement": "GI50", "setting": "MDA-MB-435", "value": 1.68, "unit": "µM"}, {"measurement": "TGI", "setting": "MDA-MB-435", "value": 3.05, "unit": "µM"}, {"measurement": "GI50", "setting": "DU-145 prostate", "value": 2.59, "unit": "µM"}, {"measurement": "TGI", "setting": "DU-145 prostate", "value": 6.54, "unit": "µM"}, {"measurement": "GI50", "setting": "A549 NSCLC", "value": 1.61, "unit": "µM"}, {"measurement": "TGI", "setting": "A549 NSCLC", "value": 3.06, "unit": "µM"}, {"measurement": "GI50", "setting": "UO-31 renal", "value": 1.4, "unit": "µM"}, {"measurement": "TGI", "setting": "UO-31 renal", "value": 2.83, "unit": "µM"}, {"measurement": "GI50", "setting": "NCI-H460 lung", "value": 1.97, "unit": "µM"}, {"measurement": "TGI", "setting": "NCI-H460 lung", "value": 3.74, "unit": "µM"}, {"measurement": "GI50", "setting": "ACHN renal", "value": 1.8, "unit": "µM"}, {"measurement": "TGI", "setting": "ACHN renal", "value": 3.19, "unit": "µM"}, {"measurement": "GI50", "setting": "HOP-92 NSCLC", "value": 1.61, "unit": "µM"}, {"measurement": "TGI", "setting": "HOP-92 NSCLC", "value": 8.51, "unit": "µM"}, {"measurement": "GI50", "setting": "SNB-75 CNS", "value": 1.46, "unit": "µM"}]}
